Measured values from US9169254B2, “Spiroimidazolone derivative” (Chugai Seiyaku Kabushiki Kaisha, priority 2009, dated 2015).

target: T1, human PTH1 receptor (Homo sapiens, UniProt Q03431); assay: In vitro cAMP signal activity in HKRK-B7 cells (LLC-PK1 cells overexpressing the human PTH1 receptor); type: cell-based; settings: HKRK-B7 cells; compound at 1×10^−3 M; […]; 0.1 µM
T1 sequence (Q03431 27-593): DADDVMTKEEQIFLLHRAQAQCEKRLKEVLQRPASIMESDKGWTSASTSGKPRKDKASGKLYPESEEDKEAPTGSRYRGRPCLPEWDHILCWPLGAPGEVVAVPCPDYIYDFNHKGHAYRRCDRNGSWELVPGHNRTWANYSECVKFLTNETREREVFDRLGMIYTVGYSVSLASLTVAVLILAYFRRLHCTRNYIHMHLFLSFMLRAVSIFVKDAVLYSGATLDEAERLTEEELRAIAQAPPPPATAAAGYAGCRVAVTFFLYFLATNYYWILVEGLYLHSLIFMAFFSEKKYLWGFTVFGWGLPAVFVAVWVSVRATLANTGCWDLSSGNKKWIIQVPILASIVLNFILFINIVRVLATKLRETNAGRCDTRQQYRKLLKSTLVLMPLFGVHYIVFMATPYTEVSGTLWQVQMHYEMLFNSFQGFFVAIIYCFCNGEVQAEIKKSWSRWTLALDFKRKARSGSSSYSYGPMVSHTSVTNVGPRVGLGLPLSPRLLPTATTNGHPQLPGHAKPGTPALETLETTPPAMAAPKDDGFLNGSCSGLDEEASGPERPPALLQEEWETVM

SMILES | cAMP production activity (%)
Cc1cc(N(C)c2nccs2)cc(C)c1CCS(=O)(=O)N1CCC2(CC1)N=C([C@H]1CC[C@H](C)CC1)NC2=O [Compound 475, 8-{2-[2,6-Dimethyl-4-(methyl-thiazol-2-yl-amino)-phenyl]-ethanesulfonyl}-2-(4-methyl-cyclohexyl)-1,3,8-triaza-spiro[4.5]dec-1-en-4-one] | 84

same assay, conditions: HKRK-B7 cells; compound at 1×10^−3 M; cAMP produced as percentage of that produced by hPTH(1-34) at 100 nM

SMILES | cAMP production activity (%)
O=C1NC(c2cccc(C(F)(F)F)c2)=NC12CCN(S(=O)(=O)/C=C/c1ccc(NCCO)cc1C(F)(F)F)CC2 [Compound 211, 8-{(E)-2-[4-(2-hydroxy-ethylamino)-2-trifluoromethyl-phenyl]-ethenesulfonyl}-2-(3-trifluoromethyl-phenyl)-1,3,8-triaza-spiro[4.5]dec-1-en-4-one] | 60
Cc1cc(N(C)C(N)=O)cc(C)c1CCS(=O)(=O)N1CCC2(CC1)N=C(CCCCCCC(F)(F)F)NC2=O [Compound 1045, 1-(3,5-dimethyl-4-{2-[4-oxo-2-(7,7,7-trifluoro-heptyl)-1,3,8-triaza-spiro[4.5]dec-1-ene-8-sulfonyl]-ethyl}-phenyl)-1-methyl-urea] | 106
Cc1cc(C(=O)N2CCC(C)(O)CC2)cc(C)c1CCS(=O)(=O)N1CCC2(CC1)N=C(C1CCC(CCC(F)(F)F)CC1)NC2=O (stereo not shown) [Compound 1380, 8-{2-[4-(4-hydroxy-4-methyl-piperidine-1-carbonyl)-2,6-dimethyl-phenyl]-ethanesulfonyl}-2-[4-(3,3,3-trifluoro-propyl)-cyclohexyl]-1,3,8-triaza-spiro[4.5]dec-1-en-4-one] | 109
CC(=CS(=O)(=O)N1CCC2(CC1)N=C(C1CCC(C)CC1)NC2=O)c1c(C)cc(N(C)C(N)=O)cc1C (stereo not shown) [Compound 741, 1-(3,5-dimethyl-4-{1-methyl-2-[2-(4-methyl-cyclohexyl)-4-oxo-1,3,8-triaza-spiro[4.5]dec-1-ene-8-sulfonyl]-vinyl}-phenyl)-1-methyl-urea] | 91
Cc1cc(N(C)C(N)=O)cc(C)c1CCS(=O)(=O)N1CCC2(CC1)N=C(CCCCCCCCCc1ccccc1)NC2=O [Compound 1348, 1-(3,5-dimethyl-4-{2-[4-oxo-2-(9-phenyl-nonyl)-1,3,8-triaza-spiro[4.5]dec-1-ene-8-sulfonyl]-ethyl}-phenyl)-1-methyl-urea] | 95
Cc1cc(OCC2(C)COC2)ccc1/C=C/S(=O)(=O)N1CCC2(CC1)N=C(C1CCCCC1)NC2=O [Compound 739, 2-Cyclohexyl-8-{(E)-2-[2-methyl-4-(3-methyl-oxetan-3-ylmethoxy)-phenyl]-ethenesulfonyl}-1,3,8-triaza-spiro[4.5]dec-1-en-4-one] | 47
Cc1cc2ccc1CCS(=O)(=O)N1CCC3(CC1)N=C(NC3=O)c1ccc(C(F)(F)F)c(c1)OCCCCCOCCN(C)C2=O [Compound 1432] | 18
CC1(C)OC[C@H](Cn2cc(F)c3c(/C=C/S(=O)(=O)N4CCC5(CC4)N=C(C4CCCCC4)NC5=O)cccc32)O1 [Compound 202, 2-cyclohexyl-8-{(E)-2-[1-((S)-2,2-dimethyl-[1,3]dioxolan-4-ylmethyl)-3-fluoro-1H-indol-4-yl]-ethenesulfonyl}-1,3,8-triaza-spiro[4.5]dec-1-en-4-one] | 27
Cc1cc(N2C(=O)CC[C@H]2CO)ccc1CCS(=O)(=O)N1CCC2(CC1)N=C(c1ccc(F)c(C(F)(F)F)c1)NC2=O [Compound 858, 2-(4-fluoro-3-trifluoromethyl-phenyl)-8-{2-[4-((S)-2-hydroxymethyl-5-oxo-pyrrolidin-1-yl)-2-methyl-phenyl]-ethanesulfonyl}-1,3,8-triaza-spiro[4.5]dec-1-en-4-one] | 100
CC(=O)NNC(=O)c1cc(C)c(CCS(=O)(=O)N2CCC3(CC2)N=C(C2CCC(CCC(F)(F)F)CC2)NC3=O)c(C)c1 (stereo not shown) [Compound 769, 3,5-dimethyl-4-(2-{4-oxo-2-[4-(3,3,3-trifluoro-propyl)-cyclohexyl]-1,3,8-triaza-spiro[4.5]dec-1-ene-8-sulfonyl}-ethyl)-benzoic acid N′-acetyl-hydrazide] | 55
Cc1c(CCS(=O)(=O)N2CCC3(CC2)N=C(c2cccc(OC(F)(F)F)c2)NC3=O)cccc1C(N)=O [Compound 410, 2-methyl-3-{2-[4-oxo-2-(3-trifluoromethoxy-phenyl)-1,3,8-triaza-spiro[4.5]dec-1-ene-8-sulfonyl]-ethyl}-benzamide] | 96
O=C1NC(C2CCCCC2)=NC12CCN(S(=O)(=O)/C=C/C1CCCC1)CC2 [Compound 344, 2-cyclohexyl-8-((E)-2-cyclopentyl-ethenesulfonyl)-1,3,8-triaza-spiro[4.5]dec-1-en-4-one] | 35
CN(C)C(=O)Cn1ccc2c(/C=C/S(=O)(=O)N3CCC4(CC3)N=C(C3CCCCC3)NC4=O)cccc21 [Compound 193, 2-{4-[(E)-2-(2-cyclohexyl-4-oxo-1,3,8-triaza-spiro[4.5]dec-1-ene-8-sulfonyl)-vinyl]-indol-1-yl}-N,N-dimethyl-acetamide] | 65
Cc1cc(C(=O)N2CCC(C)(O)CC2)cc(C)c1/C=C/S(=O)(=O)N1CCC2(CC1)N=C(c1cccc(S(F)(F)(F)(F)F)c1)NC2=O [Compound 1190, 8-{(E)-2-[4-(4-hydroxy-4-methyl-piperidine-1-carbonyl)-2,6-dimethyl-phenyl]-ethenesulfonyl}-2-(3-pentafluorosulfanyl-phenyl)-1,3,8-triaza-spiro[4.5]dec-1-en-4-one] | 108
Cc1c(CCS(=O)(=O)N2CCC3(CC2)N=C(c2cccc(OC(F)(F)F)c2)NC3=O)cccc1C(=O)N1CCOCC1 [Compound 411, 8-{2-[2-methyl-3-(morpholine-4-carbonyl)-phenyl]-ethanesulfonyl}-2-(3-trifluoromethoxy-phenyl)-1,3,8-triaza-spiro[4.5]dec-1-en-4-one] | 54
Cc1cc(C(=O)N2CCC(C)(O)CC2)cc(C)c1/C=C/S(=O)(=O)N1CCC2(CC1)N=C(c1ccc(OCCCC(F)(F)C(F)(F)F)c(F)c1)NC2=O [Compound 1207, 2-[3-fluoro-4-(4,4,5,5,5-pentafluoro-pentyloxy)-phenyl]-8-{(E)-2-[4-(4-hydroxy-4-methyl-piperidine-1-carbonyl)-2,6-dimethyl-phenyl]-ethenesulfonyl}-1,3,8-triaza-spiro[4.5]dec-1-en-4-one] | 112
O=C(CCCc1ccccc1)N1CCCC(C2=NC3(CCN(S(=O)(=O)CCc4cccc5ccccc45)CC3)C(=O)N2)C1 (stereo not shown) [Compound 437, 8-(2-naphthalen-1-yl-ethanesulfonyl)-2-[1-(4-phenyl-butyryl)-piperidin-3-yl]-1,3,8-triaza-spiro[4.5]dec-1-en-4-one] | 45
Cc1cc(C(=O)N2CCN(C(C)(C)C)CC2)ccc1CCS(=O)(=O)N1CCC2(CC1)N=C(c1cccc(C(F)(F)F)c1)NC2=O [Compound 373, 8-{2-[4-(4-tert-butyl-piperazine-1-carbonyl)-2-methyl-phenyl]-ethanesulfonyl}-2-(3-trifluoromethyl-phenyl)-1,3,8-triaza-spiro[4.5]dec-1-en-4-one] | 70
CS(=O)(=O)n1ccc2c(CCS(=O)(=O)N3CCC4(CC3)N=C(C3CCCCC3)NC4=O)cccc21 [Compound 312, 2-cyclohexyl-8-[2-(1-methanesulfonyl-1H-indol-4-yl)-ethanesulfonyl]-1,3,8-triaza-spiro[4.5]dec-1-en-4-one] | 49
COC(=O)Nc1ccc(C)c(CCS(=O)(=O)N2CCC3(CC2)N=C(C2CCCCC2)NC3=O)c1 [Compound 274, {3-[2-(2-cyclohexyl-4-oxo-1,3,8-triaza-spiro[4.5]dec-1-ene-8-sulfonyl)-ethyl]-4-methyl-phenyl}-carbamic acid methyl ester] | 74
CCCCCCCCCC1=NC2(CCN(S(=O)(=O)CCc3ccc(N(CCOCCO)C(C)=O)cc3C)CC2)C(=O)N1 [Compound 825, N-[2-(2-hydroxy-ethoxy)-ethyl]-N-{3-methyl-4-[2-(2-nonyl-4-oxo-1,3,8-triaza-spiro[4.5]dec-1-ene-8-sulfonyl)-ethyl]-phenyl}-acetamide] | 114
CC(=O)NCc1ccc(CCS(=O)(=O)N2CCC3(CC2)N=C(C2CCC(CCC(F)(F)F)CC2)NC3=O)c(C)c1 (stereo not shown) [Compound 1394, N-[3-Methyl-4-(2-{4-oxo-2-[4-(3,3,3-trifluoro-propyl)-cyclohexyl]-1,3,8-triaza-spiro[4.5]dec-1-ene-8-sulfonyl}-ethyl)-benzyl]-acetamide] | 82
Cc1cc(C2=NC3(CCN([S@TB17](=O)(=O)/C=C/c4c(C)cc(C(=O)N5CCC(C)(O)CC5)cc4C)CC3)C(=O)N2)ccc1F [Compound 1098, 2-(4-fluoro-3-methyl-phenyl)-8-{(E)-2-[4-(4-hydroxy-4-methyl-piperidine-1-carbonyl)-2,6-dimethyl-phenyl]-ethenesulfonyl}-1,3,8-triaza-spiro[4.5]dec-1-en-4-one] | 88
Cc1cc(C(=O)N(C)C)ccc1CCS(=O)(=O)N1CCC2(CC1)N=C(c1ccc(Cl)cc1)NC2=O [Compound 87, 4-{2-[2-(4-chloro-phenyl)-4-oxo-1,3,8-triaza-spiro[4.5]dec-1-ene-8-sulfonyl]-ethyl}-3,N,N-trimethyl-benzamide] | 6.7
